From patent US9486472B2, “Methods for modulating neuronal responses” (UNIVERSITY OF BRITISH COLUMBIA CANADA, priority 2003, dated 2016)
No end group written: not given here.

Tests used:
[1] = system: hippocampal neurons; experiment: NMDA- or STS-induced apoptosis in cultured hippocampal neurons (Cell Death ELISA, 11-dUTP, PI staining); assay type: cell-based, rat; settings: 100 μM NMDA + 10 μM glycine 1 h, read at 24 h; APV 50 μM; sucrose 0.4 M; myr-Dyn 100 μM; R2-CT 1 μM with Pep-1
Description: (§1) Hippocampi were rapidly removed from embryonic E l 8 Sprague Dawley rats and pooled prior to trituration. Hippocampal cell suspensions were plated onto poly-Dlysine coated culture dishes or glass coverslips and grown in Neurobasal™ media 10 (Invitrogen) for 14 days in vitro (DIV). The media from mature 14 DIV neurons was removed and replaced with 100 μM NMDA plus 10 μM glycine for 1 h at 37° C. prior to restoring neurons to the defined growth media. Twenty four hours after NMDA/glycine application, neurons were processed using cell death assays. NMDA-induced [Ca^2+]i responses were evoked and measured using methods described previously^26.
Apoptosis quantification: NMDA-induced apoptosis was quantified either using a Cell Death Detection Elisa Plus Kit (Roche Applied Sciences), which is based on the in vitro determination of cytoplasmic histone-associated DNA fragments, or using TdT mediated addition of biotinylated 11-dUTP to the free 3′-OH ends of DNA. Absorbance readings for both assays were carried out using a microplate reader.
Propidium Iodide (PI) staining of nuclei: After the induction of apoptosis, cells were fixed with 4% parafonnaldehyde/4% sucrose for 10 min followed by ice cold acetone for 1 min, and then stained with […] PI in Dulbecco's PBS for 30 min. Stained coverslips were mounted onto glass slides and viewed with a Leica fluorescence microscope to identify condensed nuclei. Cells with condensed nuclei were counted as apoptotic and the percentage of apoptotic cells to the total number of cells was calculated to give a semi-quantitative analysis, expressed as percentage of apoptosis.
A short peptide (YKEGYNVYGIE (SEQ ID NO. 2)) corresponding to amino acid residues from 869 to 879 of the C-terminus of GluR2 (R2-CT) was synthesized and incubated with a carrier protein (Pep-1)23 at a ratio of 1:20 in Dulbecco's modified Eagle's medium
(DMEM, Gibco) at 37° C. in a humidified atmosphere containing 5% CO2 for 30 min to allow the formation of R2-CT/Pep-1 complex. Hippocampal neurons (DW 12-14) were then overlaid with the preformed complex to reach a final R2-CT concentration of 1 μM and further incubated for 1 h before experiments commenced. Receptor Trafficking Assays

[2] = target: T1, NMDA receptor channel (Rattus norvegicus, UniProt P35439); experiment: NMDA-evoked [Ca2+]i responses (Fura-2); assay type: cell-based; settings: NMDA 100 μM, 500 ms puffs; sucrose 400 mM in bath
T1 construct: we loaded hippocampal neurons with the intracellular Ca2+ dye, Fura-2; endogenous in cells; host or cells: primary rat hippocampal neurons (E18 Sprague Dawley)
Description: as §1

[3] = system: Akt; experiment: Akt phosphorylation at serine 473 (Western blot); assay type: cell-based, rat
Description: Immunoprecipitation and Western blotting were carried out essentially as previously reported.^14 Proteins from cerebral cortex, hippocampal slices, cultured hippocampal neurons or transfected HEK293 cells were solubilized in RIPA buffer containing either 1% SDS (plus 5 min boiling; denaturing conditions) or 1% DOC (non-denaturing conditions). For immunoprecipitation, 500 μg of protein from these tissue lysates was incubated with their respective antibodies in 500 μl of RIPA buffer for 4 h at 4° C. Protein A-sepharose was added to the mixture and incubated for an additional 2 h. The complex was isolated by centrifugation and washed three times. Proteins eluted from the sepharose beads were subjected to SDS-PAGE and immunoblotting using their respective antibodies. For sequential re-probing of the same blots, the membranes were stripped of the initial primary and secondary antibodies and subjected to immunoblotting with another antibody. Blots were developed using enhanced chemiluminescence detection (Amersham). Band intensities were quantified using Scion Image PC software.
The serine/threonine kinase Akt/PKB has been implicated in protecting neurons from apoptotic cell death^17 and inhibition of this kinase activity has been suspected to be involved in NMDA receptor-mediated apoptosis^18. […]

[4] = system: transferrin receptor; experiment: Transferrin receptor endocytosis assay; assay type: cell-based, rat; settings: fluorescently-labeled transferrin 30 min; sucrose 0.4 M; R2-CT+Pep-1 one hour prior to and during
Description: Transferrin receptor endocytosis assay: To assess the effect of endocytosis inhibitors on transferrin receptor endocytosis, hippocampal neurons were incubated with […] Alexa-A488 conjugated transferrin (Molecular Probes) for 30 min at 37° C. in the presence or absence of endocytosis inhibitors. Internalized receptors were then viewed with a Leica fluorescence microscope.

[5] = system: rats; settings: IV 60 min prior to test session; versus saline
Description: A. Rats maintained on a restricted feeding schedule were trained to lever-press for food pellets (45 mg) on a fixed-ratio 2 (FR2) schedule during 2-hour test sessions. Rats received IV injections of saline, GluR2-3A, or GluR2-3Y, in a counterbalanced order, 60 min prior to the test session. […] B. Rats were first trained to self-administer d-amphetamine (0.2 mg/infusion) via a jugular catheter on an FR2 schedule of reinforcement. Once responding in the 3 hour test sessions had stabilized, the rats were then trained on a Progressive Ratio Schedule in which successively more responses were required to obtain each successive reinforcement. […] Once stable Break point values were established, rats received IV injections of saline, GluR2-3A, or GluR2-3Y, in a counterbalanced order, 60 min prior to the test session.

[6] = system: Sprague-Dawley rats; experiment: Transient focal ischemia model (MCA occlusion), TUNEL staining and neurological exam; assay type: in vivo, rat; settings: 10 min prior to MCA occlusion; 3 nmoles/g
Description: The procedure was performed essentially as described previously (70). Briefly, adult male Sprague-Dawley rats between 280 and 320 g (20 h fasted weight) were anesthetized with an inhaled mixture of 4% isofluorane, in 30% oxygen balanced nitrous oxide, and maintained on 1.5% isofluorane. Bronchial secretions were minimized by administering 0.5 mg/kg of atropine intraperitoneally. […] The experimenter was blinded to the identity of the treatment groups for all surgeries and down-stream experiments. Under a dissection microscope, the common carotid artery (CCA), external carotid artery (ECA), and internal carotid artery (ICA) were exposed and dissected. […] Rectal temperature, and blood pressure measured with a tail cuff were measured before treatment, 15 min post injection, 50 min post injection, and 15 min post MCA occlusion. The plasma pH, O2, and CO2 were measured with a Rapidlab™ 348 blood gas analyzer (Bayer Diagnostics) in some animals to ensure that the gas flow rates used were appropriate and yielded reproducible blood gases. […]
At day 1 post MCAo rats were anesthetized with 1.5 mL of 25% urethane and were perfused with 100 mL of 0.9% saline followed by 120 mLs of 4% paraformaldehyde in PBS. […] The slices were scored for number of cells that stained positive for TMR-TUNEL per field of view at 10× magnification. […]

[7] = target: pp60 c-Src (Homo sapiens, UniProt P12931); experiment: In vitro kinase assay with active recombinant Src; assay type: biochemical; settings: GST fusion protein as substrate
Excerpt: FIGS. 7 A-D. Insulin increases phosphorylation of tyrosine residues within the GluR2 carboxyl terminal (CT) region. A. In vitro tyrosine phosphorylation of the GluR2 CT. GST fusion proteins of the GluR1 CT (GST-GluR1CT), the GluR2 CT (GST-GluR2CT), residues 869-876 (YKEGYNVYG (SEQ ID NO. 4)) of the GluR2 CT (GST-GluR23Y), which contains a cluster of three tyrosine residues (Y869, Y873, and Y876) and the same amino acid stretch of the GluR2 CT with its tyrosine residues replaced by alanines (GST-GluR23A), along with the GST back bone (GST) as control, were incubated in the absence (−) or presence (+) of active recombinant pp60 c-Src. Phosphorylation products were immunoblotted using an anti-phosphotyrosine antibody (top panel). […] B. Expression levels of HA-GluR2 and HA-GluR23Y-3A (where tyrosines 869, 873 and 876 were mutated to alanines) 48 h after transient transfection into HEK293 cells were determined by a cell ELISA assay using permeabilized cells. C. HEK293 cells transiently transfected with HA-GluR1, HA-GluR2 or HA-GluR23Y-3A, along with empty vector (mock transfection) as control. Forty-eight hours later, the cells were treated with or without 0.5 μM insulin for 10 min. The lysates were then subjected to immunoprecipitation with an anti-HA antibody under denaturing conditions and immunoblotting with an anti-phosphotyrosine antibody (Top blot; IB: PY). […]

[8] = system: CA1 neurons in hippocampal slices; experiment: Insulin-induced depression of AMPA receptor-mediated EPSCs, whole-cell recording of CA1 neurons; assay type: cell-based, rat; settings: 100 μg/ml in recording pipette; insulin 0.5 μM in bath
Description: GST-GluR23Y and GST-GluR23A were constructed by subcloning corresponding PCR fragments into pGEX 4T-1 vectors. GST fusion proteins were expressed in DH5α E. coli and purified from bacterial lysates according to the manufacturer's protocol (Pharmacia). Products were dialyzed in PBS and concentrated using Microcon-10 columns (Amicon) for intracellular application during whole-cell recordings.
Hippocampal slices (400 μm thickness) were prepared from Sprague-Dawley rats aged 16-26 postnatal days and perfused at room temperature with artificial cerebrospinal fluid containing (mM): 126 NaCl, 26 NaHCO3, 10 glucose, 3 KCl, 1.2 KH2PO4, 1 MgCl2, and 1 CaCl2, saturated with 95% O2/5% CO2^14. The recording pipettes (4-5 MO) were filled with solution containing (mM): 135 CsCl, 10 HEPES, 5 QX-314, 4 Mg-ATP, 2 MgCl2, 0.5 EGTA, 0.2 GTP and 0.1 CaCl2, pH 7.4, 310 mOsm. Whole-cell recording of CA1 neurons and the induction of LFS-LTD were performed as previously described.^14 […]

Q: `N[C@@H](CCCP(=O)(O)O)C(=O)O` [APV, reference compound] was tested. Which NMDA-induced apoptosis [1] did it give?
A: fully blocked

Q: With `OC[C@H]1O[C@@](CO)(O[C@H]2O[C@H](CO)[C@@H](O)[C@H](O)[C@H]2O)[C@@H](O)[C@@H]1O` [sucrose] as the molecule, how does the NMDA-induced apoptosis [1] read?
A: dramatically reduced

Q: What about the “NMDA-evoked [Ca2+]i responses” value [2] of the same molecule?
A: did not significantly alter NMDA-evoked [Ca^2+]i responses

Q: What about the “NMDA-induced reduction in S473 phosphorylated Akt” value ([3]; hypertonic sucrose) of the same molecule?
A: largely prevented

Q: What about the “STS-induced reduction of Akt phosphorylation” value ([3]; sucrose treatment) of the same molecule?
A: had no effect on the reduction of Akt phosphorylation following STS treatment

Q: What about the transferrin receptor endocytosis [4] of the same molecule?
A: eliminated

Q: “YGRKKRRQRRRAKEGANVAGIE [Tat-GluR2-3A, YGRKKRRQRRR-AKEGANVAGIE, reference compound]” was tested. Which “Break Point measures for drug-reward” value [5] did it give?
A: no significant differences in the Break Point measures for drug-reward

Q: What about the “total number of responses for food reward” value [5] of the same molecule?
A: no significant differences in total number of responses for food reward

Q: And the “mean arterial blood pressure (MABP) versus saline” value [6]?
A: significantly lower mean arterial blood pressure

Q: With “GSTAKEGANVAG [GST-GluR23A, mutant counterpart with tyrosines replaced by alanines, control, reference compound]” as the molecule, how does the “tyrosine phosphorylation by recombinant Src kinase” value [7] read?
A: abolished

Q: What about the “insulin-induced EPSC depression” value [8] of the same molecule?
A: had no effect
